Type in all cases: biochemical
The target of one test is T1, recombinant human VAP-1 (Homo sapiens, UniProt Q16853).
T1 construct: purchased R&D systems
T1 sequence (Q16853 1-763): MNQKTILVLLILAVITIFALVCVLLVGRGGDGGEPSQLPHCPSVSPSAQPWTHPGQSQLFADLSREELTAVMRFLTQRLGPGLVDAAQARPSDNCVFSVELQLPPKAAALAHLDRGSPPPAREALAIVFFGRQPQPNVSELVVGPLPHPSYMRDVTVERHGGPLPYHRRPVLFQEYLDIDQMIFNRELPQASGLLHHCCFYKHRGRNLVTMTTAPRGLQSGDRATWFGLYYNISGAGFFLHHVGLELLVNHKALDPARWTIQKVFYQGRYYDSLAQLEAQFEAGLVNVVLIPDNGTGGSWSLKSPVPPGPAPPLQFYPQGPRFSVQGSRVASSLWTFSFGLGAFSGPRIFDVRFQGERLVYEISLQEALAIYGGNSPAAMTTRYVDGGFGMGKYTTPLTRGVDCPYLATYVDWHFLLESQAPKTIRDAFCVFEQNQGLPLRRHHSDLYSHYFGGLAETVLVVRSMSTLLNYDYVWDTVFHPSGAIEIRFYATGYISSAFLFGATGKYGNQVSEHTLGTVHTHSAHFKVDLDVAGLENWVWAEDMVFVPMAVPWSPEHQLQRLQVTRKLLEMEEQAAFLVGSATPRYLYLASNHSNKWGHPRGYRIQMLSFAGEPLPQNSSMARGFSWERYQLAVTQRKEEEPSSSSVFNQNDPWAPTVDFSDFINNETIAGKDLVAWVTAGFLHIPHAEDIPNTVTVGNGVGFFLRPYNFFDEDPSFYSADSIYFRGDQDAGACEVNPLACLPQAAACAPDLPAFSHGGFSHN
Kind of test: Activity on recombinant human VAP-1, Amplex Red HRP-coupled hydrogen peroxide assay, benzylamine substrate. The conditions noted are these: recombinant human VAP-1, benzylamine substrate, 30 min preincubation at 37° C.; read-out: Inhibitory Activity (IC50, nM) human VAP-1. A digest of the protocol: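 8-point 1:3 dilutions, final DMSO <1%; 30 min enzyme preincubation, 37 °C, pH 7.4 phosphate. Start: 1 mM benzylamine + 200 uM Amplex Red + 1 U/mL HRP. Read ex544/em590 over 1-2 h; % rate decrease vs DMSO control, 4-parameter logistic IC50.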

The target in test [1] is T2, recombinant human MAO-A (monoamine oxidase-A) (Homo sapiens, UniProt P21397).
T2 construct: purchased Sigma-Aldrich
T2 sequence (P21397 1-527): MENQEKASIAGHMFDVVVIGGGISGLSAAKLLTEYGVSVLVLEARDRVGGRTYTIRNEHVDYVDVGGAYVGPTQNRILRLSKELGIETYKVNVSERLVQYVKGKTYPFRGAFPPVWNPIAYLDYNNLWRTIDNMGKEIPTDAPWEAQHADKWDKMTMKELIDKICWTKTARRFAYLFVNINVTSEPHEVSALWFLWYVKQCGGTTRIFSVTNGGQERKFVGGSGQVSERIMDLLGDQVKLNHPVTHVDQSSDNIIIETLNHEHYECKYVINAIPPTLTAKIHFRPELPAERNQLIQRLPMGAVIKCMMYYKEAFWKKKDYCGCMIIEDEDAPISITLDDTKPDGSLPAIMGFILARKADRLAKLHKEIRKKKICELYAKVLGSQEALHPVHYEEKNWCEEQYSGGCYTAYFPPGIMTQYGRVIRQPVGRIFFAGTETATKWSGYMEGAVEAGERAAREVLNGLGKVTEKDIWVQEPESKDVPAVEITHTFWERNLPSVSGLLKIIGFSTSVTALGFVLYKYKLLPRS
Kind of test: Activity on recombinant human MAO-A, Amplex Red method, 0.5 mM tyramine substrate. The following applies: 0.5 mM tyramine, read-out: Inhibitory Activity (IC50, nM) MAO-A. As for the experimental part: (§1) The compounds according to the present technology were evaluated in terms of activity on recombinant human VAP-1 (R&D systems) by measuring the level of hydrogen peroxide in horseradish peroxidase (HRP)-coupled reaction using Amplex Red Hydrogen Peroxide Assay Kit (Molecular Probes, Invitrogen, USA). The experiment was carried out at room temperature using benzylamine as a substrate. In the HRP-coupled reaction, hydrogen peroxide oxidation of 10-acetyl-3,7-dihydroxyphenoxazine (Amplex Red reagent) produces resorufin, which is a highly fluorescent compound. Briefly, the test compound was dissolved in dimethyl sulfoxide (DMSO) at a concentration of 20 mM. The dose-response assessment was made by 1:3 serial dilution in DMSO, thereby creating an 8 point curve. The concentration of the upper part was controlled according to the efficacy of the compounds, followed by dilution with a reaction buffer solution to obtain a final DMSO concentration less than 1%. To each well of a 96 black well plate, human VAP-1 purified in 50 mM sodium phosphate buffer solution (pH7.4) was added. The test compounds dissolved in DMSO were incubated with the human VAP-1 enzymes at 37° C. for 30 minutes. After 30-minute incubation, each well is added with a reaction mixture containing 200 uM Amplex Red reagent prepared from 50 mM sodium phosphate buffer solution (pH 7.4), 1 mM benzylamine, and 1 U/mL HRP. Fluorescence intensity was measured at several time points during 1-2 hours using a microplate reader (Flexstation3, Molecular Devices) under the wavelength condition exciting at 544 nm and reading the emission at 590 nm. The inhibitory effect of the compounds was measured as a decrease (%) in the signal rate as compared to the control group without any inhibitor (only diluted DMSO). Data was fixed to a logistic model with four variables and IC50 value was calculated using GraphPad Prism program.
(§2) In addition, the compounds according to the present technology were evaluated in terms of activity on a recombinant human MAO-A (monoamine oxidase-A, Sigma-Aldrich) and a recombinant human MAO-B (monoamine oxidase-B, Sigma-Aldrich) by using as substrates, 0.5 mM tyramine and 1 mM benzylamine, respectively, with a method similar to the activity evaluation method for recombinant human VAP-1. The compounds according to the present technology were also evaluated in terms of activity on a recombinant human DAO (diamine oxidase, R&D systems) by using as a substrate 1 mM putrescine with a method similar to the activity evaluation method for recombinant human VAP-1.

Test [2] has as its target T3, recombinant human MAO-B (monoamine oxidase-B) (Homo sapiens, UniProt P27338).
T3 construct: purchased Sigma-Aldrich
T3 sequence (P27338 1-520): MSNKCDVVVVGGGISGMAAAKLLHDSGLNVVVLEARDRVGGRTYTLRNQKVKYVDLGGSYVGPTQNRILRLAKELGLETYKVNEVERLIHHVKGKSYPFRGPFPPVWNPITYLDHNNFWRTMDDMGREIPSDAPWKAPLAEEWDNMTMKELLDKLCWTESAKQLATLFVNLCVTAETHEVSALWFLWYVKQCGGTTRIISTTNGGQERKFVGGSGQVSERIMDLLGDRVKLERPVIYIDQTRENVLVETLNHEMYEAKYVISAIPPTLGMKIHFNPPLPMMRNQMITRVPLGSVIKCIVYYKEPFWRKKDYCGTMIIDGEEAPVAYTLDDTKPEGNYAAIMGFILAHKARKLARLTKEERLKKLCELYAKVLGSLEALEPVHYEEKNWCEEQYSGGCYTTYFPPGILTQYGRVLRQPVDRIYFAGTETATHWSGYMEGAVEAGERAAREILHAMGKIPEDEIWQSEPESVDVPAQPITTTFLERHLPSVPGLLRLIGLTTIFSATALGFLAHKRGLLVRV
Kind of test: Activity on recombinant human MAO-B, Amplex Red method, 1 mM benzylamine substrate. The conditions noted are these: 1 mM benzylamine, read-out: Inhibitory Activity (IC50, nM) MAO-B. The procedure: as §1, §2

The target in test [3] is T4, recombinant human DAO (diamine oxidase) (Homo sapiens, UniProt P19801).
T4 construct: purchased R&D systems
T4 sequence (P19801 20-751): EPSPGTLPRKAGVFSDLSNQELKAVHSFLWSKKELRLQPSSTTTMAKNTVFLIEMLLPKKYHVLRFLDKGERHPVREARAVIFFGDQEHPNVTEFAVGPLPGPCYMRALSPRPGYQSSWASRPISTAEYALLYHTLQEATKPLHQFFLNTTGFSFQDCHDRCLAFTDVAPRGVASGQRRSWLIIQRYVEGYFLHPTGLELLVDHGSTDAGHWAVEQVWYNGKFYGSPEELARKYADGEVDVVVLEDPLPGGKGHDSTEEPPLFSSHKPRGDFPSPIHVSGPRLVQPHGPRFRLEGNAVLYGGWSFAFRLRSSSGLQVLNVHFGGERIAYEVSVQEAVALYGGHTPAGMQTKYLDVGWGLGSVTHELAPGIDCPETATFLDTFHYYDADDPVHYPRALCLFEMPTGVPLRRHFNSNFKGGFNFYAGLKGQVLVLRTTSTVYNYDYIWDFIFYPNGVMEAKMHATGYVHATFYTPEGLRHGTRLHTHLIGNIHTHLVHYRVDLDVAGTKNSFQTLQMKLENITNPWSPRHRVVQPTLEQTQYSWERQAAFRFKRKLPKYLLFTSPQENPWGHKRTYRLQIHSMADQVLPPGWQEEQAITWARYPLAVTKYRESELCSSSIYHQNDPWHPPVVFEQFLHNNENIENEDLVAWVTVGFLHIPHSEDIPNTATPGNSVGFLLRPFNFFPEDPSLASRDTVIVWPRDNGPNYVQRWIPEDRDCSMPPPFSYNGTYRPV
Kind of test: Activity on recombinant human DAO, Amplex Red method, 1 mM putrescine substrate. The following applies: recombinant human DAO, 1 mM putrescine; * = between 10 and 100 nM, ** = between 300 and 1000 nM; read-out: Inhibitory Activity (IC50, nM) DAO. In short, it runs like this:
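Inhibition of recombinant human DAO (diamine oxidase, R&D systems) was assessed with the Amplex Red Hydrogen Peroxide Assay Kit. Hydrogen peroxide produced from 1 mM putrescine was detected through an HRP-coupled reaction that converts Amplex Red into fluorescent resorufin, read at 544 nm excitation and 590 nm emission. IC50 values came from four-parameter logistic fits in GraphPad Prism.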

What is called IC50 is the concentration that gives 50% inhibition.

Counter-ions that a name gives are not always drawn.

For the compound `NC/C(=C\F)Cn1ncn(-c2ccc(Br)cc2F)c1=O` [Example 12, 2-[(2E)-2-(aminomethyl)-3-fluoroprop-2-en-1-yl]-4-(4-bromo-2-fluorophenyl)-2,4-dihydro-3H-1,2,4-triazol-3-one hydrochloride], the IC50 on recombinant human VAP-1 turned out to be 0.75 nM; in test [1], 1500 nM; in test [2], 281 nM; in test [3], 38 nM.

As for `NC/C(=C/F)Cn1ncn(-c2ccc(Br)c(F)c2)c1=O` [Example 13, 2-[(2Z)-2-(aminomethyl)-3-fluoroprop-2-en-1-yl]-4-(4-bromo-3-fluorophenyl)-2,4-dihydro-3H-1,2,4-triazol-3-one], the half-inhibitory concentration (IC50) was 2.3 nM at recombinant human VAP-1, 155 nM in test [1], 3.3 nM in test [2] and 67 nM in test [3].

Turning to `NC/C(=C\F)Cn1ncn(-c2ccc(Br)c(F)c2)c1=O` [Example 14, 2-[(2E)-2-(aminomethyl)-3-fluoroprop-2-en-1-yl]-4-(4-bromo-3-fluorophenyl)-2,4-dihydro-3H-1,2,4-triazol-3-one hydrochloride], the IC50 on recombinant human VAP-1 came to 0.96 nM; in test [1], 5200 nM; in test [2], 35 nM; in test [3] it was 38 nM.

As to `Cc1cc(-n2cnn(C/C(=C\F)CN)c2=O)ccc1Br` [Example 15, 2-[(2Z)-2-(aminomethyl)-3-fluoroprop-2-en-1-yl]-4-(4-bromo-3-methylphenyl)-2,4-dihydro-3H-1,2,4-triazol-3-one], the IC50 on recombinant human VAP-1 is 2.2 nM; in test [1] it was 710 nM; in test [2], 9.8 nM; in test [3], 85 nM.

On to `Cc1cc(-n2cnn(C/C(=C/F)CN)c2=O)ccc1Br` [Example 16, 2-[(2E)-2-(aminomethyl)-3-fluoroprop-2-en-1-yl]-4-(4-bromo-3-methylphenyl)-2,4-dihydro-3H-1,2,4-triazol-3-one hydrochloride], for which the IC50 amounted to 0.74 nM at recombinant human VAP-1, 32000 nM in test [1], 141 nM in test [2] and 12 nM in test [3].

Take `COc1cc(-n2cnn(C/C(=C\F)CN)c2=O)ccc1Br` [Example 17, 2-[(2Z)-2-(aminomethyl)-3-fluoroprop-2-en-1-yl]-4-(4-bromo-3-methoxyphenyl)-2,4-dihydro-3H-1,2,4-triazol-3-one]: the IC50 on recombinant human VAP-1 was 2.7 nM; in test [1], above 100000 nM; in test [2] it was 406 nM; in test [3], 31 nM.

With `COc1cc(-n2cnn(C/C(=C/F)CN)c2=O)ccc1Br` [Example 18, 2-[(2E)-2-(aminomethyl)-3-fluoroprop-2-en-1-yl]-4-(4-bromo-3-methoxyphenyl)-2,4-dihydro-3H-1,2,4-triazol-3-one hydrochloride], the IC50 was 1.4 nM on recombinant human VAP-1, above 100000 nM in test [1], 58 nM in test [2] and 21 nM in test [3].

Consider `NC/C(=C\F)Cn1ncn(-c2cc(F)c(Br)c(F)c2)c1=O` [Example 20, 2-[(2E)-2-(aminomethyl)-3-fluoroprop-2-en-1-yl]-4-(4-bromo-3,5-difluorophenyl)-2,4-dihydro-3H-1,2,4-triazol-3-one hydrochloride], for which the IC50 is 2.2 nM at recombinant human VAP-1, above 100000 nM in test [1], above 10000 nM in test [2] and 15 nM in test [3].

For `NC/C(=C/F)Cn1ncn(-c2c(F)cc(Br)cc2F)c1=O` [Example 21, 2-[(2Z)-2-(aminomethyl)-3-fluoroprop-2-en-1-yl]-4-(4-bromo-2,6-difluorophenyl)-2,4-dihydro-3H-1,2,4-triazol-3-one hydrochloride], the IC50 was found to be 7.3 nM on recombinant human VAP-1, 400 nM in test [1], 25 nM in test [2] and 333 nM in test [3].

Values taken from US11492335B2, “Aryl or heteroaryl triazolone derivatives or salts thereof, or pharmaceutical compositions comprising the same” (YUHAN CORPORATION, priority 2018, dated 2022).
